Like-named read-outs stand apart in the source and are kept apart here.
Key:
[1] = Glucuronidation / depletion kinetics in human liver microsomes (UHPLC); format: in vitro ADME; conditions: for half-life at 10 μM: female, pooled human liver microsomes, alamethicin-activated, 10 μM compound, 0.1 mg/mL human liver microsomes, 5 mM UDPGA, 37°C, one-phase exponential decay, read-out: half-life (t1/2); for metabolic stability relative to luteolin: human hepatic microsomes, glucuronidation by UGT enzymes
Procedure: Pooled female human liver microsomes (n = 10) were purchased from XenoTech (Lenexa, US) and stored at −80°C and rapidly thawed before use. The microsomes, 0.1 mg/mL, were activated by incubation with alamethicin (Santa Cruz Biotechnology, US), 50 μg/mL microsomal protein, in 0.1 M sodium phosphate buffer using a VWR Mini Shaker (Radnor, US) at 37°C and 550 rpm for 10 min. Luteolin, 7-Cl-Lut or 7-MeO-Lut was added to give a final concentration of 10 μM and 5% DMSO, and these were pre-incubated with the activated microsomes for 5 min at 37°C and shaking at 550 rpm. The reaction was initiated by addition of 5 mM uridine 5’-diphosphoglucuronic acid, (Santa Cruz Biotechnology, US). The incubation time ranged from 0 min to 5 h. The reactions were quenched by flash freezing and stored at −80°C. The microsomes were heat inactivated using a VWR UnoCycler (Radnor, US) for 5 min at 95°C. All experiments were repeated three times.
In order to calculate depletion kinetics, the percentage of the remaining drug was calculated by comparison with the initial quantity at 0 min. The half-life (t1/2) of luteolin, 7-Cl-Lut and 7-MeO-Lut was calculated using GraphPad Prism (GraphPad Software, Inc., US, version 5.0). Data were fitted to one-phase exponential decay: C=C0*exp(-K*t) (1) The half-life(t1/2)=0.693/K (2)
Microsome-treated samples were diluted in 50% DMSO. Analytical HPLC was performed using a Nexera UHPLC system (Shimadzu, US) connected to a diode array detector (SPP M20A). Samples were analyzed using a Nucleodur C18 HTec column (EC 150 × 4.6, 5 μm, Macherey-Nagel) with a flow rate of 1 mL/min. Aliquots of 20 μL of each sample were injected, and detection was performed at 345 nm. The mobile phase was composed of solvent A (H2O in 0.1% TFA) and solvent B (acetonitrile in 0.1% TFA). The binary gradient profile was as follows with solvent B as the reference: 0–2.5 min, 17% B; 2.5–7.5 min, 17–25% B; 7.5–15.5 min, 25–35% B; 15.5–20.5 min, 35–50% B; 20.5–25.5 min, 50–100% B; 25.5–30.5 min, 100% B; 30.5–31 min, 100–17% B; 31–35.5 min, 17% B. Before first injection, the column was equilibrated at 17% B for 5 min.
The metabolization of luteolin, 7-Cl-Lut and 7-MeO-Lut by the microsomes can be followed by the decrease in the substrate concentration over time. The data shown in Fig 7 were fitted to a single-component exponential decay model and the half-lives were determined using Eqs (1) and (2). Luteolin was metabolized about 3-fold faster than 7-Cl-Lut with half-lives of 16 ± 1 min and 52 ± 7 min, respectively.
Fig 7 Depletion profile of 10 μM luteolin (triangle), 7-Cl-Lut (square) and 7-MeO-Lut (diamond) after incubation in the presence of 0.1 mg/mL human liver microsomes for various times. Each time point represents the average of three independent samples (mean ± SD) acquired through plotting the integral of the corresponding peaks from the UHPLC analysis.

TTR [2] = molecular target: T1, TTR (Homo sapiens, UniProt P02766); assay: Microscale thermophoresis (MST) binding to NT-647-labelled TTR; conditions: 300 nM NT-647-labelled TTR, PBS, 5% DMSO, mean ± S.E.M. of three measurements, read-out: dissociation constant (Kd)
T1 construct: Expression of TTR was performed as described previously; made in house; host or cells: Escherichia coli BL21
Procedure: We used MST to measure the affinity between the different ligands and TTR. TTR was labelled with the Monolith NT protein labelling kit (Nanotemper Technologies, Germany) using the sulfhydryl-reactive red fluorescent dye NT-647 Maleimide according to the manufacturer’s instructions. Labelled TTR was kept at a constant concentration of 300 nM, and luteolin, 7-Cl-Lut and 7-MeO-Lut were serially diluted yielding 13, 16 and 12 respectively different concentrations ranging from 0.24 nM to 1 μM for luteolin, 0.24 nM to 8 μM for 7-Cl-Lut, and 0.61 nM to 1.25 μM for 7-MeO-Lut. Experiments were carried out in phosphate-buffered saline and 5% DMSO with a Monolith NT.115 instrument using standard-treated capillaries (Nanotemper Technologies, Germany). Fluorescence was detected for 5 s, and the laser was switched on for 30 s followed by fluorescence detection for another 5 s. The delay time between runs was set to 25 s. The LED power and the MST were set to 80% for all drugs. Kd values were determined using NTanalysis software (NanoTemper Technologies, Germany) by fitting the data representing the mean ± S.E.M. from three independent measurements to the Kd fit model.
In order to obtain binding affinities between the drugs and TTR, we employed microscale thermophoresis (MST), which is a technique based on the directed movement of molecules in a temperature gradient. This phenomenon depends on a variety of molecular properties such as size, charge, hydration shell, and conformation. The dissociation constant (Kd) for luteolin was determined to be 150 ± 70 nM, which is in accordance with the previously published value of 100 nM determined by isothermal titration calorimetry (Fig 3A).
Fig 3 Binding of luteolin, 7-Cl-Lut and 7-MeO-Lut to NT-647–labeled TTR. Various concentrations of the compounds were titrated against 300 nM of NT-647–labeled TTR. Kd values were determined by averaging three independent experiments (mean ± S.E.M.) using the NT analysis software. The thermophoresis signal was plotted against luteolin (A), 7-Cl-Lut (B) and 7-MeO-Lut (C) concentrations.

TTR in human plasma = molecular target: T2, TTR in human plasma (Homo sapiens, UniProt P02766); assay: Urea-mediated denaturation gel-shift assay of TTR stabilization in human plasma (western blot of monomers); format: biochemical; conditions: for IC50: 4 M urea, 18 h, 20°C, densitometry of the monomeric band, read-out: IC50 (half maximal inhibitory concentration of TTR dissociation into monomers); for stoichiometric excess relative to TTR in human plasma to achieve the same stabilizing effect as luteolin: TTR assumed 5 μM
T2 construct: Human plasma from a healthy donor; from tissue; host or cells: human plasma (healthy donor)
Procedure: We have recently developed an assay in which the relative stability as a function of drug concentration can be evaluated in complex solutions [21]. TTR is found within the human plasma, and it is thus of interest to analyze drug efficacy in TTR’s natural environment. The analysis was performed as described previously with some modifications. Human plasma from a healthy donor was centrifuged at 20,000 × g for 10 min. The plasma was filtered using a 0.45 μm syringe filter (Filtropur S, Nümbrecht, Germany). A solution of 1 M sodium phosphate buffer at pH 7.0 was added to a final concentration of 40 mM. […] The reactions were incubated for 2 h at 20°C. Denaturation was initiated by addition of 4 M urea, 40 mM sodium phosphate buffer pH 7.4, and 150 mM NaCl. The samples were incubated for 18 h at 20°C followed by separation by gel electrophoresis using tricine-based SDS-PAGE with 0.025% SDS in the running buffer and 0.2% SDS in the loading buffer. […] Gel electrophoresis was followed by western blotting using rabbit anti-TTR antibody (anti-prealbumin, DAKO, Denmark) followed by a horseradish peroxidase-labeled antibody (anti-rabbit HRP, GE Healthcare, Sweden). Blocking of nonspecific binding on the membrane and incubation of the antibodies were performed in 5% fat-free powdered milk containing 0.3% Tween-20. All washing steps were performed in 40 mM Tris, 150 mM NaCl, and 0.3% Tween-20. Bound antibodies were visualized on photographic film using enhanced chemiluminescence (ECL-prime, GE Healthcare, UK). […] The presence of monomers on the photographic film was quantified through a densitometric analysis using the ImageJ 1.48 software (National Institutes of Health, […], US), which also ensured that all analyses were performed within a linear range. The plasma concentration of TTR is approximately 5 μM [38], and this implies that a drug must be present at ≥5 μM to work effectively as a stabilizer. Here we used a recently developed urea-mediated denaturation assay to determine the drug concentration needed in plasma to obtain the half maximal inhibitory concentration (IC50). In the experiment, the dissociation of TTR into monomers is monitored by the appearance of a monomeric band on a western blot (Fig 8). The fraction of denaturation was quantified by densitometric analysis using ImageJ 1.48 software. […] Fig 8 Determination of IC50 for luteolin, 7-Cl-Lut and 7-MeO-Lut in human plasma. The drug’s ability to selectively stabilize TTR in plasma was evaluated using a urea denaturation assay. The dissociation of the TTR tetramer is indicated by the presence of a monomeric TTR band on a western blot. (A) Gel-shift assay of various concentrations of luteolin in human plasma. […] (C) Gel-shift assay of various concentrations of 7-MeO-Lut in human plasma.

TTR [3] = molecular target: T1, TTR; design: method as in ref 49 = [49]; PMID 22842046; doi:10.1016/j.jsb.2012.07.008; 49 Trivella DB , dos Reis CV , Lima LM , Foguel D , Polikarpov I ( 2012 ) Flavonoid interactions with human transthyretin: combined structural and thermodynamic analysis . J Struct Biol 180 : 143 – 15; conditions: binding to TTR; cited from earlier work
TTR [4] = molecular target: T1, TTR; design: method as in ref 37 = [37]; PMID 22842046; doi:10.1016/j.jsb.2012.07.008; 37 Trivella DBB , dos Reis CV , Lima LMTR , Foguel D , Polikarpov I ( 2012 ) Flavonoid interactions with human transthyretin: Combined structural and thermodynamic analysis . Journal of Structural Bio; conditions: isothermal titration calorimetry; read-out: Kd, previously published value; cited from earlier work
[5] = design: method as in PMID 23556338; conditions: in vivo persistence against metabolic activity; cited from earlier work

Row | Compound | half-life at 10 μM [1] | metabolic stability relative to luteolin [1] | Kd (TTR [2]) | IC50 (TTR in human plasma) | stoichiometric excess relative to TTR in human plasma to achieve the same stabilizing effect as luteolin (TTR in human plasma) | times lower affinity compared to luteolin (TTR [3]) | Kd (TTR [4]) | half-life [5]
1 | O=c1cc(-c2ccc(O)c(O)c2)oc2cc(Cl)cc(O)c12 [7-Cl-Lut, 2-(3,4-dihydroxyphenyl)-5-hydroxy-7-chloro-4H-1-benzopyran-4-one] | 52 ± 7 min | approximately 3 fold | 620 ± 150 nM | ~65000 nM | 13 fold | – | – | –
2 | COc1cc(O)c2c(=O)cc(-c3ccc(O)c(O)c3)oc2c1 [7-MeO-Lut, 2-(3,4-dihydroxyphenyl)-5-hydroxy-7-methoxy-4H-1-benzopyran-4-one] | 36 ± 8 min | doubled | 390 ± 40 nM | ~105000 nM | 21 fold | – | – | –
3 | O=c1cc(-c2ccc(O)cc2)oc2cc(O)cc(O)c12 [apigenin] | – | – | – | – | – | 5 times | – | –
4 | O=c1cc(-c2ccccc2)oc2cc(O)cc(O)c12 [chrysin] | – | – | – | – | – | 17 times | – | –
5 | O=c1cc(-c2ccc(O)c(O)c2)oc2cc(O)cc(O)c12 [luteolin] | 16 ± 1 min | – | 150 ± 70 nM | ~5000 nM | – | – | 100 nM | around 8 hours

Reference: paper PMC4822800, “Modifications of the 7-Hydroxyl Group of the Transthyretin Ligand Luteolin Provide Mechanistic Insights into Its Binding Properties and High Plasma Specificity” (PLoS ONE, 2016)
